Test system: 171881-019-R-J1-PDC tumor spheroids, viability
Experiment: Anticancer human tumor 171881-019-R-J1-PDC patient-derived invasive breast carcinoma cell line growth inhibition [GQUAD]
Conditions: spheroids with HUVEC and MSC; for IC50: curve of first compound; for viability, T/C: stronger effect = lower value
In short: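 Multi-cell-type spheroids of tumor cells with HUVEC and mesenchymal stem cells, treated with drug combinations. Concentrations descend in half-log steps from near clinical Cmax, or from 10 microM where Cmax is unknown; viability read-out.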

[1] = second compound 0.0316 µM, first compound 0.0316 µM
[2] = second compound 0.0316 µM, first compound 0.1 µM
[3] = second compound 0.0316 µM, first compound 0.316 µM
[4] = second compound 0.0316 µM, first compound 1 µM
[5] = second compound 0.0316 µM, first compound 3.16 µM
[6] = second compound 0.0316 µM, first compound 10 µM
[7] = second compound 0.1 µM, first compound 0.0316 µM
[8] = second compound 0.1 µM, first compound 0.1 µM
[9] = second compound 0.1 µM, first compound 0.316 µM
[10] = second compound 0.1 µM, first compound 1 µM
[11] = second compound 0.1 µM, first compound 3.16 µM
[12] = second compound 0.1 µM, first compound 10 µM
[13] = second compound 0.316 µM, first compound 0.0316 µM
[14] = second compound 0.316 µM, first compound 0.1 µM
[15] = second compound 0.316 µM, first compound 0.316 µM
[16] = second compound 0.316 µM, first compound 1 µM
[17] = second compound 0.316 µM, first compound 3.16 µM
[18] = second compound 0.316 µM, first compound 10 µM
[19] = second compound 1 µM, first compound 0.0316 µM
[20] = second compound 1 µM, first compound 0.1 µM
[21] = second compound 1 µM, first compound 0.316 µM
[22] = second compound 1 µM, first compound 1 µM
[23] = second compound 1 µM, first compound 3.16 µM
[24] = second compound 1 µM, first compound 10 µM
[25] = second compound 3.16 µM, first compound 0.0316 µM
[26] = second compound 3.16 µM, first compound 0.1 µM
[27] = second compound 3.16 µM, first compound 0.316 µM
[28] = second compound 3.16 µM, first compound 1 µM
[29] = second compound 3.16 µM, first compound 3.16 µM
[30] = second compound 3.16 µM, first compound 10 µM
[31] = second compound 10 µM, first compound 0.0316 µM
[32] = second compound 10 µM, first compound 0.1 µM
[33] = second compound 10 µM, first compound 0.316 µM
[34] = second compound 10 µM, first compound 1 µM
[35] = second compound 10 µM, first compound 3.16 µM
[36] = second compound 10 µM, first compound 10 µM
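Note: spheroids exposed to compounds for 7 days.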
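Throughout, for viability, T/C: 100% = DMSO vehicle control viability.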

C#Cc1c(F)ccc2cc(O)cc(-c3ncc4c(N5CC6CCC(C5)N6)nc(OCC56CCCN5CC(F)C6)nc4c3F)c12 (centres undefined) + CN(C)c1ccc(Nc2c3ccc(NC(=O)CCN4CCCC4)cc3nc3cc(NC(=O)CCN4CCCC4)ccc23)cc1
IC50 (second compound 0.0316 µM): 509 nM
IC50 (second compound 0.1 µM): 362 nM
IC50 (second compound 0.316 µM): < 31.6 nM
IC50 (second compound 1 µM): < 31.6 nM
IC50 (second compound 3.16 µM): < 31.6 nM
IC50 (second compound 10 µM): < 31.6 nM
viability, T/C [1]: 91.8%
viability, T/C [2]: 77.2%
viability, T/C [3]: 53.9%
viability, T/C [4]: 41.5%
viability, T/C [5]: 25.2%
viability, T/C [6]: 11.2%
viability, T/C [7]: 87.8%
viability, T/C [8]: 68.1%
viability, T/C [9]: 52%
viability, T/C [10]: 35%
viability, T/C [11]: 23.7%
viability, T/C [12]: 8.76%
viability, T/C [13]: 43.1%
viability, T/C [14]: 33.4%
viability, T/C [15]: 24.5%
viability, T/C [16]: 15.3%
viability, T/C [17]: 11.9%
viability, T/C [18]: 0.81%
viability, T/C [19]: 3.77%
viability, T/C [20]: 3.04%
viability, T/C [21]: 3.15%
viability, T/C [22]: 1.14%
viability, T/C [23]: 1%
viability, T/C [24]: 0.07%
viability, T/C [25]: 0.2%
viability, T/C [26]: 0.29%
viability, T/C [27]: 0.47%
viability, T/C [28]: 0.22%
viability, T/C [29]: 0.17%
viability, T/C [30]: 0.1%
viability, T/C [31]: 0.11%
viability, T/C [32]: 0.1%
viability, T/C [33]: 0.13%
viability, T/C [34]: 0.26%
viability, T/C [35]: 0.26%
viability, T/C [36]: 0.13%

CC(=O)O[C@H]1C(=O)[C@@]2(C)[C@H]([C@H](OC(=O)c3ccccc3)[C@]3(O)C[C@H](OC(=O)[C@H](O)[C@@H](NC(=O)c4ccccc4)c4ccccc4)C(C)=C1C3(C)C)[C@]1(OC(C)=O)CO[C@@H]1C[C@@H]2O + CN(C)c1ccc(Nc2c3ccc(NC(=O)CCN4CCCC4)cc3nc3cc(NC(=O)CCN4CCCC4)ccc23)cc1
IC50 (second compound 0.0316 µM): < 31.6 nM
IC50 (second compound 0.1 µM): < 31.6 nM
IC50 (second compound 0.316 µM): < 31.6 nM
IC50 (second compound 1 µM): < 31.6 nM
IC50 (second compound 3.16 µM): < 31.6 nM
IC50 (second compound 10 µM): < 31.6 nM
viability, T/C [1]: 43.1%
viability, T/C [2]: 29.6%
viability, T/C [3]: 29.1%
viability, T/C [4]: 25.7%
viability, T/C [5]: 27.4%
viability, T/C [6]: 26.6%
viability, T/C [7]: 44.7%
viability, T/C [8]: 32.1%
viability, T/C [9]: 26.8%
viability, T/C [10]: 28.4%
viability, T/C [11]: 26.4%
viability, T/C [12]: 25.6%
viability, T/C [13]: 25.1%
viability, T/C [14]: 22.9%
viability, T/C [15]: 20.6%
viability, T/C [16]: 14.4%
viability, T/C [17]: 19.6%
viability, T/C [18]: 15.7%
viability, T/C [19]: 3.67%
viability, T/C [20]: 2.91%
viability, T/C [21]: 3.17%
viability, T/C [22]: 2.09%
viability, T/C [23]: 2.08%
viability, T/C [24]: 2.43%
viability, T/C [25]: 0.23%
viability, T/C [26]: 0.45%
viability, T/C [27]: 0.18%
viability, T/C [28]: 0.19%
viability, T/C [29]: 0.24%
viability, T/C [30]: 0.32%
viability, T/C [31]: 0.1%
viability, T/C [32]: 0.18%
viability, T/C [33]: 0.1%
viability, T/C [34]: 0.11%
viability, T/C [35]: 0.27%
viability, T/C [36]: 0.19%

From PubChem BioAssay AID2060498 (Molecular Pharmacology Branch, DTP, NCI, 2025)
